# Earlier results in patent US6767895B2 (priority 2000, dated 2004).
# Settings: in vivo; cited from earlier work
substance,measurement,value
contulakin-G,potency in inhibiting pain relative to neurotensin,significantly more potent than neurotensin
